{"source": "patent US5242945A", "about": "“Tetronic and thiotetronic acid derivatives as phospholipase A2 inhibitors” (American Home Products Corporation, priority 1991, dated 1993)", "test_system": "lipoxygenase and/or cyclooxygenase pathways of arachidonic acid metabolism", "assay": "in vivo murine zymosan peritonitis assay", "set-up": "species or system mouse (CD-1)", "settings": "100 mg/kg p.o.; negative values denote potentiation", "method": "The compounds of the invention are evaluated for their ability to inhibit the lipoxygenase and/or cyclooxygenase pathways of arachidonic acid metabolism in the in vivo murine zymosan peritonitis assay.\nMale CD-1 mice (8 weeks old) are placed in plastic boxes in groups of six. Animals are injected with 1 mL i.p. of either 1% zymosan in pyrogen free 0.9% saline or saline (unstimulated control). Compounds are dosed orally 1 hour prior to zymosan injection. Twenty minutes after zymosan injection, the mice are asphyxiated by CO2 inhalation and the peritoneal cavity is lavaged with 2 mL ice cold Hanks Balanced Salt Solution (HBSS) without CaCl2, MgSO4. 7H2 O and MgCl2.6H2 O. Peritoneal lavage fluid from each mouse is removed by syringe and placed in 5 mL plastic test tubes put on ice and volume is noted. Preparation of samples for evaluation by ELISA is as follows: Samples are centrifuged at 800 xg for 15 minutes; 1 mL of the supernatant is added to 8 mL ice cold methanol and kept at -70° C. overnight to precipitate protein; and samples are then centrifuged at 800 xg for 15 minutes, followed by a drying procedure in a Savant speed vac concentrator. The samples are reconstituted with 1 mL ice cold ELISA buffer and stored at -70° C. until assayed. The assay for eicosanoids (LTC4 and 6-keto-PGF1α) is performed according to conventional ELISA procedures.\nCompounds to be tested orally are suspended in 0.5% Tween 80. Compounds to be tested intraperitoneally are suspended in 0.5% methylcellulose in 0.9% saline.\nThe total metabolite level in lavage fluid/mouse is calculated and the significance is determined by a one-way analysis of variance with LSD comparisons to control (p≤0.05). Drug effects are expressed as a percent change from control values."}
{"smiles": "CCCCCCCCCC(=O)C1=C(O)COC1=O", "note": "[Example 1, 4-Hydroxy-3-(1-oxodecyl)-2(5H)-furanone]", "values": [{"measurement": "% Inhibition 6-keto-PGF", "result": -58, "unit": "%"}, {"measurement": "% Inhibition LTC4", "result": -58, "unit": "%"}]}
